{"source": "patent US20260027083A1", "about": "“USE OF PPAR AGONIST FOR IMPROVEMENT OF ENERGY METABOLISM” (NOVMETAPHARMA CO., LTD., priority 2022, published 2026)", "key": {"[1]": {"system": "3T3-L1 adipocytes", "test": "3T3-L1 adipocyte differentiation, Oil Red O staining", "format": "cell-based, mouse", "conditions": "treated together with rosiglitazone, each 25 μM", "description": "A mouse preadipocyte 3T3-L1 cell line was cultured in DMEM containing 10% […] (CS) and 1% P/S. For differentiation of 3T3-L1, 10% FBS and 1% P/S were used. The cells were cultured in a 37° C. incubator humidified with 5% CO2 atmosphere.\n3T3-L1 cells were seeded in a 12-well plate at a density of 5×10^4 cells/well. […] On day 2 of MDI addition, the medium was replaced with 1 μg/ml insulin.\nAfter 2 days, the medium was replaced with DMEM containing 10% FBS and 1% P/S, and treated with a drug. The medium was replaced with fresh DMEM containing 10% FBS and 1% P/S, and treated with the drug three times every 2 days. Finally, the medium was replaced with DMEM containing only the drug in a serum-free state (serum starvation). After 2 days, differentiation of 3T3-L1 was completed.\nAfter the differentiation of 3T3-L1 in the 12-well plate was completed, the cells were fixed with 4% paraformaldehyde and stained with an Oil Red O solution, and then the stained samples were photographed under a microscope (Nikon Eclipse Ti-s). An Oil Red O dye of the samples was dissolved in isopropanol, detected by a spectrophotometer at 492 nm, and the lipid droplet size distribution was measured using ImageJ. OCT-embedded liver samples were stained according to the Roy Ellis protocol. […]"}, "[2]": {"biological_target": "T1, PPARγ (Homo sapiens, UniProt P37231)", "T1 construct": "three types of pcDNA5-GAL4 and pGALRE-luc containing PPARα-LBD, PPARβ/δ-LBD, or PPARγ-LBD; GAL4 (fusion partner from vector pcDNA5-GAL4); expressed in transfected cells; host or cells: HEK293", "T1 sequence (P37231 238-503 limits assumed)": "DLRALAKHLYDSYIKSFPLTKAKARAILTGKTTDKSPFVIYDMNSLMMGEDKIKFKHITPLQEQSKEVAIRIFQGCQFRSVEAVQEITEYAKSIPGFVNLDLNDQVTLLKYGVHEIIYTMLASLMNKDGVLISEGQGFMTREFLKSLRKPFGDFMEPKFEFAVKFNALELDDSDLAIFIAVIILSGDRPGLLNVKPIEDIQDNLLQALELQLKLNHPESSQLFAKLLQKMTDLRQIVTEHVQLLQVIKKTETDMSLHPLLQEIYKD", "test": "Gal4 trans-activated luciferase reporter assay, PPARγ-LBD, HEK293", "format": "cell-based", "conditions": "HEK293, drug treatment 24 hours, FIG. 1", "description": "A plasmid was transformed into E. coli (DE3, Rosetta) and transfected into HEK293 cells and used. Referring to known literatures such as Kanno, Y. & Inouye, Y. J Toxicol Sci 35, 515-525 (2010), Zhao, S. et al. J Nat Prod 79, 879-885 (2016), etc., luciferase assay was performed on three types of pcDNA5-GAL4 and pGALRE-luc containing PPARα-LBD, PPARβ/δ-LBD, or PPARγ-LBD. pProEX-PPAR and pET-28a were used for purification of His-tagged recombinant hPPAR-LBD protein.\nA HEK293 cell line was cultured in Dulbecco's Modified Eagle Medium (DMEM) containing 10% Fetal Bovine Serum (FBS) and 1% penicillin-streptomycin (P/S). […]\nTransfected HEK293 cells were treated with a drug and after 24 hours, the cells were collected, resuspended in a luciferase lysis buffer (Promega, Madison, Wisconsin, USA), and incubated on ice for 10 minutes. […] Next, Firefly Luciferase (Fluc) and Renilla Luciferase (Rluc) activities were measured using the Dual Luciferase Reporter Assay System (Promega, Madison, Wisconsin, USA). […]\nTo confirm whether a compound represented by Chemical Formula 1 was a PPAR agonist, Gal4 trans-activated luciferase assay was performed. Specifically, HEK293 cells were transfected with the Gal4-luciferase reporter systems of PPARα, PPARβ/δ, and PPARγ, respectively, harvested after drug treatment for 24 hours, and then analyzed by Dual-Luciferase assay. […]"}, "[3]": {"system": "high-fat diet mice", "test": "Histology of adipose tissues of high-fat diet mice (H&E)", "format": "in vivo, C57BL/6J mice", "conditions": "5 mg/kg/day oral, 60% HFD", "description": "(§1) The care and use of experimental animals were carried out with the approval of the Institutional Animal Care and Use Committee of Pohang University of Science and Technology. C57BL/6J mice were purchased from Japan SLC, Inc. 50 four-week-old male C57/BL/6J mice were acclimated for 2 weeks. The mice were randomly divided and orally administered with vehicle or 5 mg/kg/day of D6 or WY14643 for 13 weeks (oral gavage), and obesity was induced by a 60% high-fat diet (#D12492, Research diets, NJ, USA). Body weights and food intakes were measured weekly from 6 weeks of age, and after 16 weeks of age, adipose tissue and muscle volumes were measured using a Trimodality imaging system.\n(§2) Mouse tissues were fixed with 10% formalin solution (Sigma-Aldrich, St. Louis, MO, USA), and paraffin-embedded tissues were segmented and stained with hematoxylin and eosin (H&E) staining and Sirius Red staining (IHC world, Woodstock, USA).\nTo observe the effects of the compound represented by Chemical Formula 1 on metabolic diseases, biopsy was performed on adipose tissues of high-fat diet mice."}, "[4]": {"system": "high-fat diet mice", "test": "Histology of liver tissues of high-fat diet mice (H&E, Sirius Red, Oil Red O, NAFLD activity score)", "format": "in vivo, C57BL/6J mice", "conditions": "5 mg/kg/day oral, 13 weeks HFD", "description": "After the differentiation of 3T3-L1 in the 12-well plate was completed, the cells were fixed with 4% paraformaldehyde and stained with an Oil Red O solution, and then the stained samples were photographed under a microscope (Nikon Eclipse Ti-s). An Oil Red O dye of the samples was dissolved in isopropanol, detected by a spectrophotometer at 492 nm, and the lipid droplet size distribution was measured using ImageJ. OCT-embedded liver samples were stained according to the Roy Ellis protocol.\nas §1, §2\nFibrosis and vesicular fat in liver tissue were observed using Sirius Red and Oil Red O staining methods. The NAFLD activation score was evaluated by referring to Kleiner, D. E. et al. Hepatology 41, 1313-1321, doi: 10.1002/hep.20701 (2005), etc., according to the NASH Clinical Research Network Scoring System.\nTo evaluate the effects on fatty liver-related symptoms after administration of the compound represented by Chemical Formula […], Sirius Red, and Oil Red O staining were performed on liver tissues of mice fed with a high-fat diet for 13 weeks."}}, "data": [{"smiles": "COc1ccc(-c2cc(=O)oc3c(C)c(OC(=O)[C@H](Cc4c[nH]c5ccccc45)NC(=O)OC(C)(C)C)ccc23)cc1", "note": "[Chemical Formula 1, [4-(4-methoxyphenyl)-8-methyl-2-oxochromen-7-yl] (2S)-3-(1H-indol-3-yl)-2-[(2-methylpropan-2-yl)oxycarbonylamino]propanoate]", "values": [{"measurement": "lipid droplet size distribution in adipocytes", "setting": "[1]; FIG. 4 right", "value": "effectively reduced"}, {"measurement": "lipid accumulation in adipocytes increased by rosiglitazone (Oil Red O)", "setting": "[1]; FIGS. 3 and 4 left", "value": "reduced"}, {"measurement": "relative luciferase activity (Fluc to Rluc) for PPARγ", "setting": "[2]", "value": "dose-dependently increased"}, {"measurement": "adipocyte sizes in adipose tissue (H&E staining)", "setting": "[3]; FIG. 14", "value": "reduced"}, {"measurement": "adipocyte size distribution, brown adipose tissue (BAT)", "setting": "[3]; FIG. 15", "value": "reducing adipocyte sizes"}, {"measurement": "adipocyte size distribution, epididymal white adipose tissue (eWAT)", "setting": "[3]; FIG. 15", "value": "reducing adipocyte sizes"}, {"measurement": "adipocyte size distribution, inguinal WAT (iWAT)", "setting": "[3]; FIG. 15", "value": "reducing adipocyte sizes"}, {"measurement": "level of lipid droplet accumulation in the liver (Oil Red O)", "setting": "[4]; FIG. 18", "value": "reduced"}, {"measurement": "NAFLD activity score (H&E images of liver tissue)", "setting": "[4]; compared with WY14643 5 mg/kg/day, FIG. 17", "value": "better effect of improving the NAFLD disease index than the high-fat diet mice (HFD-WY) administered with WY14643"}, {"measurement": "histological findings of fatty liver-related diseases in liver tissue", "setting": "[4]; vs HFD-V, FIG. 16", "value": "reduced"}]}]}
